Holding throughout (type): biochemical
Assay [1] deals with panel of eight glycosidases. Put plainly: Glycosidase inhibition, whole panel of Table 7. To be noted: 1 mg/mL aqueous solution added. The protocol:
(§1) All enzymes and para-nitrophenyl substrates were purchased from Sigma. Enzymes were assayed at 27 °C in citric acid (0.1M)/disodium hydrogen phosphate (0.2 M) buffers at the optimum pH for the enzyme. The incubation mixture consisted of […] enzyme solution, […] of 1 mg/mL aqueous solution of extract, and […] of the appropriate 5 mM para-nitrophenyl substrate made up in buffer at the optimum pH for the enzyme. The reactions were stopped by the addition of […] 0.4 M glycine (pH 10.4) during the exponential phase of the reaction, which had been determined at the beginning using uninhibited assays in which water replaced the inhibitor. Final absorbances were read at 405 nm using a Versamax microplate reader (Molecular Devices). Assays were carried out in triplicate, and the values given are the means of the three replicates per assay. All reactions run in water.

For assay [2], the system named is N-acetyl-β-D-glucosaminidase (bovine kidney). Put plainly: Glycosidase inhibition, Table 7. To be noted: 1 mg/mL aqueous solution added, 27 °C, run in water. Here is the method: as §1
Assay [3] relates to α-D-glucosidase (Bacillus). Put plainly: Glycosidase inhibition, Table 7. To be noted: 1 mg/mL aqueous solution added, 27 °C, run in water. The protocol:
as §1

Assay [4] has as its target T1, α-D-mannosidase (Jack bean) (Canavalia ensiformis, UniProt C0HJB3).
T1 construct: purchased Sigma
T1 sequence (C0HJB3 1-981): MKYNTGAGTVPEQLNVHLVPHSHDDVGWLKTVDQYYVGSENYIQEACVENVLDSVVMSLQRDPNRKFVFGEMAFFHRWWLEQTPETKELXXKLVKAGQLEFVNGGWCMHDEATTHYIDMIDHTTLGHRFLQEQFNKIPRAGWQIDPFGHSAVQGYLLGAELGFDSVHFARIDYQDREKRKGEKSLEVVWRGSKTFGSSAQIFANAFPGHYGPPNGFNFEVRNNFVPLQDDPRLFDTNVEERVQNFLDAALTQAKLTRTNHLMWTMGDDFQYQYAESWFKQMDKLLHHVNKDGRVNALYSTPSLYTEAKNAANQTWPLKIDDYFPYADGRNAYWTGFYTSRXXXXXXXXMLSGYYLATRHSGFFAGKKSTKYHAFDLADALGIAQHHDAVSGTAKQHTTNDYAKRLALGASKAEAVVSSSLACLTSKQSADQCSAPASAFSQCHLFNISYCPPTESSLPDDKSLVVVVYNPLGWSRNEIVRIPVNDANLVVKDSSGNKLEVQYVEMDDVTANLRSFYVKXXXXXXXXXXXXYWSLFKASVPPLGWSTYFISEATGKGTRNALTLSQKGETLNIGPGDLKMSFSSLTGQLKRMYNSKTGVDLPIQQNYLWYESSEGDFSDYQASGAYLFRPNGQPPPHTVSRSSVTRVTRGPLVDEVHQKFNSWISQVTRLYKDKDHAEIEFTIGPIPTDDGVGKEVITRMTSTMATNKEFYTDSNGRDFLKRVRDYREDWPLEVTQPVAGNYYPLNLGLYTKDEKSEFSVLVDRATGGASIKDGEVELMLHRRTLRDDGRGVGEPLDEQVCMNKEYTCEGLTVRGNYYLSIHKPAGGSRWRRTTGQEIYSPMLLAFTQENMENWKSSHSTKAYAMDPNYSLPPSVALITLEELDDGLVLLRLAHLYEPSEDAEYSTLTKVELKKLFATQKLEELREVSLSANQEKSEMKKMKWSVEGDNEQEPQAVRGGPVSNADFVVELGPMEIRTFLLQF
In words: Glycosidase inhibition, Table 7. To be noted: 1 mg/mL aqueous solution added, 27 °C, run in water; for inhibition at 1000 µg/mL (stock): read-out: α-D-Mannosidase Jack Bean, percentage inhibition. Here is the method:
as §1

For assay [5], the target named is β-D-galactosidase (E. coli) (Escherichia coli, UniProt P00722). In words: Glycosidase inhibition, Table 6 footnote. To be noted: read-out: β-D-galactosidase (E. coli), inhibition % at 100 μM.
Assay [6] relates to α-D-glucosidase (rat intestine). Put plainly: Glycosidase inhibition, Table 7. To be noted: 1 mg/mL aqueous solution added, 27 °C, run in water. The protocol:
as §1

The subject of assay [7] is N-acetyl-β-D-hexosaminidase (rat intestine). Put plainly: Glycosidase inhibition, Table 7. To be noted: 1 mg/mL aqueous solution added, 27 °C, run in water. Here is the method: as §1
The test system of a further assay is panel of 15 glycosidases. In words: Glycosidase inhibition, whole panel of Table 6. To be noted: at 100 or 1000 μM. An excerpt:
The enzymes α-D-glucosidase (from yeast), β-D-glucosidases (from almond and bovine liver), α-D-galactosidase (from coffee beans), β-D-galactosidase (from bovine liver), α-D-mannosidase (from Jack bean), β-D-mannosidase (from snail), α-L-rhamnosidase (from Penicillium decumbens), α-L-fucosidase (from bovine kidney), trehalase (from porcine kidney), β-D-glucuronidases (from E. coli and bovine liver), amyloglucosidase (from A. niger), para-nitrophenyl glycosides, and various disaccharides were purchased from Sigma-Aldrich Co. (St. Louis, MO, USA).
Brush border membranes were prepared from the rat small intestine according to the method of Kessler et al., and were assayed at pH 6.8 for rat intestinal maltase using maltose. For rat intestinal maltase, porcine kidney trehalase, and A. niger amyloglucosidase activities, the reaction mixture contained maltose (25 mM) and the appropriate amount of enzyme, and the incubations were performed for 10–30 min at 37 °C. The reaction was stopped by heating at 100 °C for 3 min. […] The absorbance at 505 nm was measured to determine the amount of the released D-glucose. Other glycosidase activities were determined using an appropriate para-nitrophenyl glycoside as substrate at the optimum pH of each enzyme. […] The released para-nitrophenol was measured spectrometrically at 400 nm. […]

Assay [8] addresses β-D-glucosidase (human lysosome) (Homo sapiens, UniProt P04062). Put plainly: Glycosidase inhibition, Table 6 footnote.
The target in assay [9] is α-D-glucosidase (human lysosome) (Homo sapiens, UniProt P10253). Put plainly: Glycosidase inhibition, Table 6 footnote.

For orientation: inhibition means the drop in the measured response relative to a control, in per cent.

Sequence of β-D-galactosidase (E. coli) (P00722 2-1024): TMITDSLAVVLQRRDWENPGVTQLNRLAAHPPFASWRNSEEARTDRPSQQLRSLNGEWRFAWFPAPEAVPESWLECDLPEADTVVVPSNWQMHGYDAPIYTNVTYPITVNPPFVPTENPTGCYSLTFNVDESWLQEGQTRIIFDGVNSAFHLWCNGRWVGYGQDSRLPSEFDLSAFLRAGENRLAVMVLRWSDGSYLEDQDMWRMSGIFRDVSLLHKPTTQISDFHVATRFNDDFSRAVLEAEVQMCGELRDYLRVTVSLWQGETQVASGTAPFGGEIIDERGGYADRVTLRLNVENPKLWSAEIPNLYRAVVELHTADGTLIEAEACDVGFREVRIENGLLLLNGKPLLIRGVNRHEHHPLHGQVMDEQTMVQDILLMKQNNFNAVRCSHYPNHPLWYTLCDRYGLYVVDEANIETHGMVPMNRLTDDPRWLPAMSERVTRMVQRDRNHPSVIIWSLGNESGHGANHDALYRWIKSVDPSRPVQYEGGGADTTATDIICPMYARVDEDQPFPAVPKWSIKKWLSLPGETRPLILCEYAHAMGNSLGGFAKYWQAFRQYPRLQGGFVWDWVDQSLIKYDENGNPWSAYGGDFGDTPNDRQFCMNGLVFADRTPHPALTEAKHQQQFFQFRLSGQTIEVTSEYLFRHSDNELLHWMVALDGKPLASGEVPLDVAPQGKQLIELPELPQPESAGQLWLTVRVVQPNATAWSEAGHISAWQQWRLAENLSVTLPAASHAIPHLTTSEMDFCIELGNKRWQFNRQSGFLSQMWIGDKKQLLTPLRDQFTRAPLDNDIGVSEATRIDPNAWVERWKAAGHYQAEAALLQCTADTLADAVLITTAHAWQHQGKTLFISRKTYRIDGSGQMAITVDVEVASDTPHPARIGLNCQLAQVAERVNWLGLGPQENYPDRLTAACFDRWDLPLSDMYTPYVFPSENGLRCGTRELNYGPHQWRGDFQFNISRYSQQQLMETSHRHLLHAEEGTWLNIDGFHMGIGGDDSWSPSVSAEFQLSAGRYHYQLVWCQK
Sequence of β-D-glucosidase (human lysosome) (P04062 40-536): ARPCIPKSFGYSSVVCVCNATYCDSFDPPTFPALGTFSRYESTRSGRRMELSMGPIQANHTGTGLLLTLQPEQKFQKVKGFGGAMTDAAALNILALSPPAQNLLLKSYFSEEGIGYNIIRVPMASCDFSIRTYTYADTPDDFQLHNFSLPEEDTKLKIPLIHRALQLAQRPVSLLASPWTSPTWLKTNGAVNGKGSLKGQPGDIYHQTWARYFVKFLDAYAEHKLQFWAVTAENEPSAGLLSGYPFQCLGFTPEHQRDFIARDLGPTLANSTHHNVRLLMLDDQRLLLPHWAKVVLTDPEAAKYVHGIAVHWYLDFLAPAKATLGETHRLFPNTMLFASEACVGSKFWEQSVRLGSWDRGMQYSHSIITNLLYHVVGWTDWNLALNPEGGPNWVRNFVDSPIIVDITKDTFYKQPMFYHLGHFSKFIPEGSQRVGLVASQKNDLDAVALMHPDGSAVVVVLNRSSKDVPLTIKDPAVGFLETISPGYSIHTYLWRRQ

Regarding `N[C@@H](Cc1ccc(B(O)O)cc1)C(=O)O` [BPA, 4-borono-L-phenylalanine, reference compound], the “inhibitions across the panel (Table 7)” value in assay [1] was “below 30%”. In addition, the “N-Acetyl-β-D-glucosaminidase Bovine Kidney, percentage inhibition” value in assay [2] is reported as 6.7%. Further, the “α-D-Glucosidase Bacillus, percentage inhibition” value in [3] was determined as 19.9%. In addition, in [4], the inhibition at 1000 µg/mL (stock) was found to be 0.6%.
With `CC1(C)O[C@H]2O[C@H]3[C@@H]([C@H]2O1)N(Cc1ccccc1)C[C@H]3O` [Compound 3, N-Benzyl-3,6-dideoxy-3,6-imino-1,2-O-isopropylidene-α-D-gulofuranose], in assay [2], the “N-Acetyl-β-D-glucosaminidase Bovine Kidney, percentage inhibition” value was −0.1%. For the same compound, the “α-D-Glucosidase Bacillus, percentage inhibition” value in assay [3] is reported as −43.2%. Further, the inhibition at 1000 µg/mL (stock) in assay [4] was -30.6%.
`OC1O[C@@H]2[C@H]([C@H]1O)N(Cc1ccccc1)C[C@H]2O` (stereo partly drawn) [Compound 4, N-Benzyl-3,6-dideoxy-3,6-imino-D-gulofuranose]: the “N-Acetyl-β-D-glucosaminidase Bovine Kidney, percentage inhibition” value in assay [2] is on record as −9.1%. Moreover, the “α-D-Glucosidase Bacillus, percentage inhibition” value in assay [3] is listed as −37.9%. For the same compound, in [4], the inhibition at 1000 µg/mL (stock) was -12.1%.
Turning to `OC[C@H](O)[C@@H]1[C@H](O)[C@H](O)CN1Cc1ccccc1` [Compound 5, N-Benzyl-1,4-dideoxy-1,4-imino-L-gulitol], the figures for the inhibition at 100 µM in assay [5], in assay [8] and in assay [9] were 0%, 2.91% and 0%, respectively. Further, the “α-D-Glucosidase Rat Intestine, percentage inhibition” value in assay [6] is −1.3%. Further, the “N-Acetyl-β-D-hexosaminidase Rat Intestine, percentage inhibition” value in assay [7] is listed as −1.5%. In addition, the “percent inhibitions in the panel (Table 6)” value in the assay with panel of 15 glycosidases was “do not provide a strong degree of inhibition”.
Turning to `N[C@@H](Cc1ccc(B(O)O)cc1)C(=O)O` [^10B-BPA, reference compound], the “inhibitions across the panel (Table 7)” value in assay [1] is on record as “below 30%”. Besides, in [2], the “N-Acetyl-β-D-glucosaminidase Bovine Kidney, percentage inhibition” value is given as 6.3%. The “α-D-Glucosidase Bacillus, percentage inhibition” value in [3] turned out to be 19.5%. Also, the “α-D-Mannosidase Jack Bean, percentage inhibition” value in assay [4] is recorded as −0.7%.
On to `CC1(C)O[C@H]2O[C@H]3[C@@H]([C@H]2O1)N(Cc1ccc(B2OC(C)(C)C(C)(C)O2)cc1)C[C@H]3O` [para 6, N-(4-Methylphenylboronic acid pinacol ester)-3,6-dideoxy-3,6-imino-1,2-O-isopropylidene-α-D-gulofuranose], for which the “percent inhibitions in the panel (Table 6)” value in the assay on panel of 15 glycosidases is “do not provide a strong degree of inhibition”.
Take `OB(O)c1ccc(CN2CC(O)C3OC(O)C(O)C32)cc1` [para 7, N-(4-Methylphenylboronic acid)-3,6-dideoxy-3,6-imino-D-gulofuranose]: in assay [6], the “α-D-Glucosidase Rat Intestine, percentage inhibition” value is −5.4%. The “N-Acetyl-β-D-hexosaminidase Rat Intestine, percentage inhibition” value in [7] is on record as 4.4%.
As for `OC[C@H](O)[C@@H]1[C@H](O)[C@H](O)CN1Cc1ccc(B(O)O)cc1` [para 8, N-(4-Methylphenylboronic acid)-1,4-dideoxy-1,4-imino-L-gulitol], in assay [7], the “N-Acetyl-β-D-hexosaminidase Rat Intestine, percentage inhibition” value amounted to 2.6%.
For the compound “borocaptate sodium [BSH, reference compound]”, the “inhibitions across the panel (Table 7)” value in assay [1] was 31.6–65.9%. Also, the “N-Acetyl-β-D-glucosaminidase Bovine Kidney, percentage inhibition” value in [2] is recorded as 37.1%. The “α-D-Glucosidase Bacillus, percentage inhibition” value in assay [3] came to 48.1%. Further, the “α-D-Mannosidase Jack Bean, percentage inhibition” value in [4] was −18.7%.

These data come from paper PMC12472391, “Borylated Five-Membered Ring Iminosugars: Synthesis, Spectroscopic Analysis, and Biological Evaluation for Glycosidase Inhibition and Anticancer Properties for Application in Boron Neutron Capture Therapy (BNCT)—Part 1” (Pharmaceuticals, 2025).
